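Grown in 96-well plates, cells were treated for 48 hours with each compound at five concentrations. Insufficient inhibition: endpoint recorded as highest concentration tested. GI50 = concentration required for 50% inhibition of growth.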 The source made the active and inactive calls. Cut-off read from the data, not from the text of the source: active = GI50 up to about 1.1 µM and inactive = higher.
Experiments:
Test in all cases: NCI tumour cell line growth inhibition, 48 h
786-0 = test system: 786-0
A549 = test system: A549
ACHN = test system: ACHN
CCRF-CEM = test system: CCRF-CEM
COLO 205 = test system: COLO 205
DLD-1 = test system: DLD-1
DMS-114 = test system: DMS-114
EKVX = test system: EKVX
HCT-116 = test system: HCT-116
HCT-15 = test system: HCT-15
HL-60 = test system: HL-60
HOP-18 = test system: HOP-18
HOP-62 = test system: HOP-62
HOP-92 = test system: HOP-92
HT-29 = test system: HT-29
IGROV-1 = test system: IGROV-1
K562 = test system: K562
KM-20L2 = test system: KM-20L2
KM12 = test system: KM12
LOX IMVI = test system: LOX IMVI
LXFL 529 = test system: LXFL 529
M14 = test system: M14
M19-MEL = test system: M19-MEL
MOLT-4 = test system: MOLT-4
NCI-H226 = test system: NCI-H226
NCI-H23 = test system: NCI-H23
NCI-H460 = test system: NCI-H460
OVCAR-3 = test system: OVCAR-3
OVCAR-5 = test system: OVCAR-5
OVCAR-8 = test system: OVCAR-8
RXF 393 = test system: RXF 393
RXF 631 = test system: RXF 631
SF-268 = test system: SF-268
SF-295 = test system: SF-295
SF-539 = test system: SF-539
SK-MEL-28 = test system: SK-MEL-28
SK-MEL-2 = test system: SK-MEL-2
SK-OV-3 = test system: SK-OV-3
SNB-19 = test system: SNB-19
SNB-78 = test system: SNB-78
SR = test system: SR
SW-620 = test system: SW-620
TK-10 = test system: TK-10
U-251 = test system: U-251
UACC-257 = test system: UACC-257
UACC-62 = test system: UACC-62
UO-31 = test system: UO-31
A498 = test system: A498
CAKI-1 = test system: CAKI-1
DMS-273 = test system: DMS-273
HCC 2998 = test system: HCC 2998
Malme-3M = test system: Malme-3M
NCI-H522 = test system: NCI-H522
OVCAR-4 = test system: OVCAR-4
RPMI-8226 = test system: RPMI-8226
SK-MEL-5 = test system: SK-MEL-5
SN12C = test system: SN12C
SNB-75 = test system: SNB-75

Compound: CCc1cc(CCC(=O)Nc2ccccc2[N+](=O)[O-])nc(S)n1
- GI50 (786-0): > 100 µM (inactive)
- GI50 (A549): > 100 µM (inactive)
- GI50 (ACHN): > 100 µM (inactive)
- GI50 (CCRF-CEM): > 100 µM (inactive)
- GI50 (COLO 205): > 100 µM (inactive)
- GI50 (DLD-1): > 100 µM (inactive)
- GI50 (DMS-114): > 100 µM (inactive)
- GI50 (EKVX): > 100 µM (inactive)
- GI50 (HCT-116): > 100 µM (inactive)
- GI50 (HCT-15): > 100 µM
- GI50 (HL-60): > 100 µM (inactive)
- GI50 (HOP-18): > 100 µM (inactive)
- GI50 (HOP-62): > 100 µM (inactive)
- GI50 (HOP-92): > 100 µM (inactive)
- GI50 (HT-29): > 100 µM (inactive)
- GI50 (IGROV-1): > 100 µM (inactive)
- GI50 (K562): > 100 µM (inactive)
- GI50 (KM-20L2): > 100 µM (inactive)
- GI50 (KM12): > 100 µM (inactive)
- GI50 (LOX IMVI): > 100 µM (inactive)
- GI50 (LXFL 529): > 100 µM (inactive)
- GI50 (M14): > 100 µM (inactive)
- GI50 (M19-MEL): > 100 µM (inactive)
- GI50 (MOLT-4): > 100 µM (inactive)
- GI50 (NCI-H226): > 100 µM (inactive)
- GI50 (NCI-H23): > 100 µM (inactive)
- GI50 (NCI-H460): > 100 µM (inactive)
- GI50 (OVCAR-3): > 100 µM (inactive)
- GI50 (OVCAR-5): > 100 µM (inactive)
- GI50 (OVCAR-8): > 100 µM (inactive)
- GI50 (RXF 393): > 100 µM (inactive)
- GI50 (RXF 631): > 100 µM (inactive)
- GI50 (SF-268): > 100 µM (inactive)
- GI50 (SF-295): > 100 µM (inactive)
- GI50 (SF-539): > 100 µM (inactive)
- GI50 (SK-MEL-28): > 100 µM (inactive)
- GI50 (SK-MEL-2): > 100 µM (inactive)
- GI50 (SK-OV-3): > 100 µM (inactive)
- GI50 (SNB-19): > 100 µM (inactive)
- GI50 (SNB-78): > 100 µM (inactive)
- GI50 (SR): > 100 µM (inactive)
- GI50 (SW-620): > 100 µM (inactive)
- GI50 (TK-10): > 100 µM (inactive)
- GI50 (U-251): > 100 µM (inactive)
- GI50 (UACC-257): > 100 µM (inactive)
- GI50 (UACC-62): > 100 µM (inactive)
- GI50 (UO-31): > 100 µM (inactive)

Compound: CSCC1CC(c2ccc(Cl)cc2)=NO1 (configuration not stated)
- GI50 (786-0): > 100 µM (inactive)
- GI50 (A498): > 100 µM (inactive)
- GI50 (A549): > 100 µM (inactive)
- GI50 (ACHN): > 100 µM (inactive)
- GI50 (CAKI-1): > 100 µM (inactive)
- GI50 (CCRF-CEM): > 100 µM (inactive)
- GI50 (COLO 205): > 100 µM (inactive)
- GI50 (DLD-1): > 100 µM (inactive)
- GI50 (DMS-114): > 100 µM (inactive)
- GI50 (DMS-273): > 100 µM (inactive)
- GI50 (EKVX): > 100 µM (inactive)
- GI50 (HCC 2998): > 100 µM (inactive)
- GI50 (HCT-116): > 100 µM (inactive)
- GI50 (HCT-15): > 100 µM
- GI50 (HL-60): > 100 µM (inactive)
- GI50 (HOP-18): > 100 µM (inactive)
- GI50 (HOP-62): > 100 µM (inactive)
- GI50 (HOP-92): > 100 µM (inactive)
- GI50 (HT-29): > 100 µM (inactive)
- GI50 (IGROV-1): > 100 µM (inactive)
- GI50 (K562): > 100 µM (inactive)
- GI50 (KM-20L2): > 100 µM (inactive)
- GI50 (KM12): > 100 µM (inactive)
- GI50 (LXFL 529): > 100 µM (inactive)
- GI50 (M14): > 100 µM (inactive)
- GI50 (M19-MEL): > 100 µM (inactive)
- GI50 (MOLT-4): > 100 µM (inactive)
- GI50 (Malme-3M): > 100 µM (inactive)
- GI50 (NCI-H226): > 100 µM (inactive)
- GI50 (NCI-H23): > 100 µM (inactive)
- GI50 (NCI-H460): > 100 µM (inactive)
- GI50 (NCI-H522): > 100 µM (inactive)
- GI50 (OVCAR-3): > 100 µM (inactive)
- GI50 (OVCAR-4): > 100 µM (inactive)
- GI50 (OVCAR-5): > 100 µM (inactive)
- GI50 (OVCAR-8): > 100 µM (inactive)
- GI50 (RPMI-8226): > 100 µM (inactive)
- GI50 (RXF 631): > 100 µM (inactive)
- GI50 (SF-268): > 100 µM (inactive)
- GI50 (SF-295): > 100 µM (inactive)
- GI50 (SF-539): > 100 µM (inactive)
- GI50 (SK-MEL-28): > 100 µM (inactive)
- GI50 (SK-MEL-2): > 100 µM (inactive)
- GI50 (SK-MEL-5): > 100 µM (inactive)
- GI50 (SK-OV-3): > 100 µM (inactive)
- GI50 (SN12C): > 100 µM (inactive)
- GI50 (SNB-75): > 100 µM (inactive)
- GI50 (SNB-78): > 100 µM (inactive)
- GI50 (SR): > 100 µM (inactive)
- GI50 (SW-620): > 100 µM (inactive)
- GI50 (TK-10): > 100 µM (inactive)
- GI50 (U-251): > 100 µM (inactive)
- GI50 (UACC-257): > 100 µM (inactive)
- GI50 (UACC-62): > 100 µM (inactive)
- GI50 (UO-31): > 100 µM (inactive)

From ChEMBL document CHEMBL1201862, “PubChem BioAssay data set” (2004)
